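96-well plates; 48 h exposure; 5 concentrations. Endpoints by linear interpolation between flanking doses. Not reached: highest tested concentration assigned. At the GI50, growth is halved.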 Calls of active or inactive are those of the source. Rule as the data show it: active = GI50 up to about 1.1 µM and inactive = higher.
Columns and labels:
Assay in all cases: NCI tumour cell line growth inhibition, 48 h
[1] = system: OVCAR-3
[2] = system: HOP-62
[3] = system: NCI-H460
[4] = system: U-251
[5] = system: 786-0
[6] = system: K562
[7] = system: SN12C
[8] = system: SF-539
[9] = system: HL-60
[10] = system: SK-OV-3
[11] = system: HCT-116
[12] = system: NCI-H226
[13] = system: HT-29
[14] = system: NCI-H522
[15] = system: SNB-19
[16] = system: MOLT-4
[17] = system: KM12
[18] = system: UO-31
[19] = system: CAKI-1

| Compound | GI50 [1] | GI50 [2] | GI50 [3] | GI50 [4] | GI50 [5] | GI50 [6] | GI50 [7] | GI50 [8] | GI50 [9] | GI50 [10] | GI50 [11] | GI50 [12] | GI50 [13] | GI50 [14] | GI50 [15] | GI50 [16] | GI50 [17] | GI50 [18] | GI50 [19] |
| --- | --- | --- | --- | --- | --- | --- | --- | --- | --- | --- | --- | --- | --- | --- | --- | --- | --- | --- | --- |
| CC1Cc2c(N)nc(N3CCOCC3)nc2NC1=O (stereo unspecified) | > 100 µM (inactive) | > 100 µM (inactive) | > 100 µM (inactive) | > 100 µM (inactive) | > 100 µM (inactive) | > 100 µM (inactive) | > 100 µM (inactive) | > 100 µM (inactive) | > 100 µM (inactive) | > 100 µM (inactive) | > 100 µM (inactive) | > 100 µM (inactive) | > 100 µM (inactive) | > 100 µM (inactive) | > 100 µM (inactive) | > 100 µM (inactive) | > 100 µM (inactive) | > 100 µM (inactive) |  |
| Fc1ccccc1C1SCc2nc3cc4ccccc4cc3n21 (stereo unspecified) | > 100 µM (inactive) | > 100 µM (inactive) | 26.5 µM (inactive) | 33.7 µM (inactive) | 20.5 µM (inactive) | > 100 µM (inactive) | 36.1 µM (inactive) |  | 13.2 µM (inactive) | 71.6 µM (inactive) | 24.9 µM (inactive) | 75.5 µM (inactive) | 43.9 µM (inactive) | 18.7 µM (inactive) | 32.5 µM (inactive) | > 100 µM (inactive) | > 100 µM (inactive) | > 100 µM (inactive) | 37 µM (inactive) |
| COc1nc(O)c(N)c(NC2OC(CO)C(O)C(O)C2O)n1 (stereo unspecified) | > 100 µM (inactive) | > 100 µM (inactive) | > 100 µM (inactive) | > 100 µM (inactive) |  | > 90.8 µM (inactive) | > 100 µM (inactive) | > 100 µM (inactive) | > 82.8 µM (inactive) | > 100 µM (inactive) | > 100 µM (inactive) | > 31.6 µM (inactive) | > 100 µM (inactive) | > 100 µM (inactive) | > 100 µM (inactive) | > 100 µM (inactive) | > 100 µM (inactive) | > 100 µM (inactive) |  |
| COc1ccccc1C1C(C(=O)O)=C(CO)Oc2cc3c(cc21)OCO3 (stereo unspecified) | > 100 µM (inactive) |  | > 100 µM (inactive) | > 100 µM (inactive) |  | > 100 µM (inactive) | > 100 µM (inactive) | > 100 µM (inactive) | > 100 µM (inactive) | > 100 µM (inactive) |  | > 100 µM (inactive) | > 100 µM (inactive) | > 100 µM (inactive) | > 100 µM (inactive) | > 100 µM (inactive) |  | > 100 µM (inactive) | > 100 µM (inactive) |
| CCCCN(CCCC)C(=O)C(=O)C(C#N)c1ccc(C)cc1 (stereo unspecified) | > 100 µM (inactive) | > 100 µM (inactive) | > 100 µM (inactive) | > 100 µM (inactive) | > 100 µM (inactive) | > 100 µM (inactive) | > 100 µM (inactive) | > 100 µM (inactive) | > 100 µM (inactive) |  | > 100 µM (inactive) | > 100 µM (inactive) | > 100 µM (inactive) | > 100 µM (inactive) | > 100 µM (inactive) | > 100 µM (inactive) | > 100 µM (inactive) | > 100 µM (inactive) | > 100 µM (inactive) |
| CN(C)C(=S)SCc1ccccc1 | > 100 µM (inactive) | > 100 µM (inactive) | > 100 µM (inactive) | > 100 µM (inactive) |  |  | > 100 µM (inactive) | > 100 µM (inactive) | 99.1 µM (inactive) | > 100 µM (inactive) | 83.9 µM (inactive) | 54.2 µM (inactive) | > 100 µM (inactive) | 19.8 µM (inactive) | > 100 µM (inactive) |  | > 100 µM (inactive) | 53.7 µM (inactive) | > 100 µM (inactive) |
| N=S(c1ccccc1[N+](=O)[O-])c1ccccc1[N+](=O)[O-] | 1.5 µM (inactive) | 5.96 µM (inactive) |  |  | 1.95 µM (inactive) |  | 1.72 µM (inactive) | 4.58 µM (inactive) |  | 6.27 µM (inactive) | 1.5 µM (inactive) | 5.6 µM (inactive) |  | 0.561 µM (active) | 8.07 µM (inactive) | 2.61 µM (inactive) | 6.65 µM (inactive) | 3.08 µM (inactive) | 3.3 µM (inactive) |

From ChEMBL document CHEMBL1201862, “PubChem BioAssay data set” (2004)
